Experimental data reported in patent publication US11939377B2, “Affinity matured CD22-specific monoclonal antibody and uses thereof” (The U.S.A., as represented by the Secretary, Department of …, priority 2018, dated 2024).

Columns and labels:
[1] = system: CD22 expression on ALL and DLBCL cell lines (Nalm6, Kopn8, SEM, Pfeiffer, Toledo, PDX); test: CD22 expression on leukemia/lymphoma cells by flow cytometry after drug exposure in vitro; type: cell-based, human
Method: FIGS. 3A-3D: (FIG. 3A) Four cell lines (Nalm6, Kopn8, Pfieffer and Toldeo) were co-incubated with 1 ng/ml Bryostatin 1 for 24 hours and analyzed using flow cytometry one day after Bryostatin 1 exposure. Site density was analyzed using standardized Quantibrite-PE beads. (FIG. 3B) Cell lines were co-incubated with 1 ng/ml Bryostatin 1 for 24 hours, washed, and analyzed using flow cytometry at 1 and 7 days after Bryostatin 1 exposure. Fold change was calculated based on site density: (Cell line Bryostatin 1—Cell line DMSO)/Cell line DMSO. (FIG. 3C) NSG mice were injected with 1×10^6 GPF-positive Nalm6 leukemia cells on Day 0. Bryostatin 1 was administered at 0.8 μg/kg on Day 3. Mice were sacrificed 7 and 12 days after Bryostatin 1 injection and CD22 was evaluated by flow cytometry. (FIG. 3D) CD22-low relapse PDX cell line was cultured in vitro with 1 nmol/L Bryostatin 1 for 24 hours and measured for CD22 expression using CD22 antibody.
FIGS. 10A-10E: (FIG. 10A) Three cell lines (Toldeo, Kopn8 and Nalm6) were co-incubated with Bryostatin 1 at varying concentrations for 24 hours. At 24 hours, cells were collected for protein kinase C (PKC)-βII isoform analysis by western blot. (FIG. 10B) KOPN8 or SEM cell lines were exposed to Bryostatin 1 for 16, 24, 48 or 72 hours. RNA was extracted from cells and analyzed using RNAseq. (FIG. 10C) Immunofluorescent staining of CD22 was conducted through permeabilization followed by staining of CD22. (FIG. 10D) Four cell lines were co-incubated with various combinations of Enzastaurin (10 μM), Staurosporine (100 μM), or Bryostatin 1 (1 nM) for 24 hours. CD22 expression was assessed using flow cytometry. MFI fold change=CD22 MFI^Bryostatin1/CD22 MFI^DMSO. (FIG. 10E) Cell lines were co-incubated with 1 nM Bryostatin 1 for 24 hours and measured for CD22 expression using CD22-PE antibody. MFI fold change=CD22 MFI^Bryostatin 1/CD22 MFI^DMSO.
FIG. 11: CD22^lo or parental Nalm6 cell lines were exposed to 1 ng/ml Bryostatin 1 for 24 hours. CD22 expression was assessed using flow cytometry.
For all in vitro experiments and tumor/CAR pretreatment prior to intravenous injection, Bryostatin 1 was administered to cells at a concentration of 1 ng/mL. Dimethyl sulfoxide (DMSO) vehicle control was administered to control-treated cells at an equal volume. Prior to co-culture or intravenous injection, Bryostatin 1- and DMSO-treated cells were washed 3x in sterile PBS. For all in vivo experiments, Bryostatin 1 was diluted in PBS and administered via intraperitoneal injection at a dose of 40 μg/kg (1 μg/25 g mouse). For control-treated groups, an equal volume of DMSO was diluted in PBS and administered in the same manner
FACS analysis of cell surface CAR and protein expression was performed using an LSR II Fortessa flow cytometer (BD Biosciences). CD22-CAR was detected by incubation with 22-Fc (R&D Systems), followed by incubation with human IgG-specific PE-F(ab)2 (Thermo Fisher Scientific). The following human monoclonal antibodies were used for detection of cell surface proteins: CD22-APC, CD22-PE, CD19-Pacific Blue, CD45-PerCP/Cy5.5, CD3-APC/Cy7, PD1-PE/Cy7, LAG3-APC, TIM3-Pacific Blue, CD8-APC, CD8-PE/Cy7, CD45RA-APC, CD45RO-PE/Cy7, CCR7-Pacific Blue, CD4-Pacific Blue, CD69-APC (all from BioLegend). CD22 site density was determined using QuantiBrite-PE beads (BD Biosciences) using methods previously described (Jasper et al., Cytometry B Clin Cytom 80(2):83-90, 2011). Dead cells were identified using eFluor 506 fixable viability dye (Thermo Fisher Scientific). GFP-expressing leukemia cells were identified through the FITC channel.

[2] = system: Nalm6, Nalm6 CRISPR variant, SEM or PDX leukemia; test: Nalm6 / SEM xenograft and PDX in vivo studies (IVIS luminescence); design: species or system NSG mice
[3] = system: CD22^neg, CD22^lo or Nalm6 cells; test: In vitro leukemia clearance assay (IncuCyte, loss of GFP-positive cells); type: cell-based, human; details: effector-to-target 1:1
Method: Cell death was monitored by loss of GFP-positive cells using Incucyte analysis. (FIG. 2B) NSG mice were injected with 1×10^6 GPF-positive CD22neg, CD22lo, or Nalm6 tumor cells on Day 0. […] Mice were imaged using IVIS technology after luciferin-D IP injection. […] Cells were stained for flow cytometry and analyzed on a Fortessa flow machine. (FIG. 2E) Site density cell lines were co-incubated with CD22 CART for 24 hours, and PD1 expression was stained for flow cytometry and analyzed on Fortessa flow machine. MFI=mean fluorescence intensity. […] (FIG. 2G) CD22 site density was evaluated using flow cytometry and Quantibrite analysis for CRISPR-edited Nalm6 cell lines.
FIGS. 5A-5D: (FIGS. 5A-5B) CD22 CART cells were co-incubated with 1 ng/ml of Bryostatin 1 for 24 hours and washed. […] IFN-γ (FIG. 5A) and granzyme B (FIG. 5B) were measured by ELISA from cell culture supernatants. Statistical analysis was performed using an unpaired t-test (**** p<0.0001, *** p<0.0002, ** p<0.0021, * p<0.0332). […] Cell death was monitored by loss of GFP-positive cells using Incucyte analysis. (FIG. 5D) NSG mice were injected with Nalm6 on Day 0, CD22 CART cells on Day 3, and then were given either DMSO control or Bryostatin 1 at 0.8 μg/kg once weekly for 2 weeks. Leukemia progression was monitored using IVIS technology and luciferin-D IP injections. […]

Compound: CCC/C=C/C=C/C(=O)O[C@H]1/C(=C/C(=O)OC)C[C@H]2C[C@H]([C@@H](C)O)OC(=O)C[C@H](O)C[C@@H]3C[C@H](OC(C)=O)C(C)(C)[C@](O)(C[C@@H]4C/C(=C/C(=O)OC)C[C@H](/C=C/C(C)(C)[C@]1(O)O2)O4)O3 [Bryostatin 1]
- persistence of increased CD22 expression following removal of drug ([1]; 24 hours exposure, washed, analyzed at 1 and 7 days): persisted for a week
- CD22 expression on CD22^lo leukemia cells following exposure ([1]; CD22^lo Nalm6, 1 ng/ml, 24 hours): did not demonstrate an increase
- CD22 expression (MFI fold change) ([1]; KOPN8 and SEM, 1 nM, 24 hours): robust upregulation
- CD22 on CD22-low relapse patient-derived ALL xenograft ([1]; PDX cell line cultured in vitro, 1 nmol/L, 24 hours): upregulated
- CD22 expression upon exposure ([1]; all four cell lines (two pre-B ALL, two DLBCL), 1 ng/ml, 24 hours): significant increase
- durability of remission after subcurative dose of CD22 CART ([2]; Nalm6 and SEM, 40 μg/kg once weekly for 2 weeks): improved durability of remission
- efficacy of the CD19 CAR in vivo ([2]; SEM, 40 μg/kg once weekly for 2 weeks): did not reduce efficacy
- ability of CD22-CAR to attenuate progression of CD22^lo leukemia in vivo ([2]; once weekly for 2 weeks after CD22 CART): did not impact
- kinetics of leukemic clearance in vitro by drug-exposed CAR T cells [3]: no change
